Target: T1, Aldo-keto reductase family 1 member C2 (Homo sapiens, UniProt P52895)
T1 sequence (P52895 whole entry): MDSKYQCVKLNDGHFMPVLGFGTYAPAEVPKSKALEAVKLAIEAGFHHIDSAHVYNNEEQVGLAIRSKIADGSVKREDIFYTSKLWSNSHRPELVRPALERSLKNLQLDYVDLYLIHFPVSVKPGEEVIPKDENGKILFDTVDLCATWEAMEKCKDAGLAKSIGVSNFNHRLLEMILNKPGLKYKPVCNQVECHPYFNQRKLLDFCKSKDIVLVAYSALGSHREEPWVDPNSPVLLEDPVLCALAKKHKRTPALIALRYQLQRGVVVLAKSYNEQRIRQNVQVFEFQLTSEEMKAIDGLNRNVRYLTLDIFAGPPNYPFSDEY
Experiment: Inhibition of human recombinant AKR1C2-mediated NADP+-dependent oxidation of S-(+)-1,2,3,4-tetrahydro-1-naphthol

SMILES	IC50 [µM]
COc1ccc2c(c1)c(CC(=O)O)c(C)n2C(=O)c1ccc(F)cc1	61
COc1ccc2c(c1)c(CC(=O)NS(C)(=O)=O)c(C)n2C(=O)c1ccc(Cl)cc1	65.4
COc1ccc(C(=O)n2c(C)c(CC(=O)O)c3cc(OC)ccc32)cc1	45.1
COc1ccc2c(c1)c(CC(=O)O)c(C)n2C(=O)c1cccc(C(F)(F)F)c1	19.5
Cc1c(CC(=O)O)c2cc(F)ccc2n1C(=O)c1cccc(C(F)(F)F)c1	7.84
COC(=O)Cc1c(C)n(C(=O)c2ccc(C)cc2)c2ccc(OC)cc12	43.6
COC(=O)Cc1c(C)n(C(=O)c2ccc(C(F)(F)F)cc2)c2ccc(OC)cc12	> 100
COC(=O)Cc1c(C)n(C(=O)c2ccc(OC)cc2)c2ccc(OC)cc12	> 100
Cc1c(CCC(=O)O)c2cc(F)ccc2n1C(=O)c1ccc(Cl)cc1	13.5
COc1ccc2c(c1)cc(C)n2C(=O)c1ccc(Cl)cc1	24
COC(=O)Cc1cn(C(=O)c2ccc(Cl)cc2)c2ccc(OC)cc12	> 100
COc1ccc2c(c1)c(CC(=O)O)cn2C(=O)c1ccc(F)cc1	> 100
COc1ccc2c(c1)c(CC(=O)O)cn2C(=O)c1ccc(C(F)(F)F)cc1	> 100
COc1ccc2c(c1)c(CC(=O)O)cn2C(=O)c1cccc(C(F)(F)F)c1	100
O=C(O)Cc1cn(C(=O)c2ccc(Cl)cc2)c2ccc(F)cc12	23.3
COc1ccc2c(c1)c(CC(=O)NS(C)(=O)=O)cn2C(=O)c1ccc(Cl)cc1	16.7
COc1ccc2c(c1)c(CC(=O)NS(=O)(=O)c1ccc(C)cc1)cn2C(=O)c1ccc(Cl)cc1	42.7
COc1ccc2c(c1)c(CC(=O)NS(=O)(=O)c1ccc3ccccc3c1)cn2C(=O)c1ccc(Cl)cc1	16.8
COc1ccc2c(c1)c(CC(=O)NS(=O)(=O)c1ccccc1C)cn2C(=O)c1ccc(Cl)cc1	15.3
COc1ccc2c(c1)c(CC(=O)NS(=O)(=O)c1ccc(C(F)(F)F)cc1)cn2C(=O)c1ccc(Cl)cc1	38.2
COc1ccc2c(c1)c(CC(=O)NS(=O)(=O)c1ccc(OC(F)(F)F)cc1)cn2C(=O)c1ccc(Cl)cc1	59.4
COc1ccc2c(c1)c(CC(=O)NS(=O)(=O)c1ccc(Cl)s1)cn2C(=O)c1ccc(Cl)cc1	15.1
COc1ccc2c(c1)c(CC(=O)NS(=O)(=O)c1ccc(C(C)=O)cc1)cn2C(=O)c1ccc(Cl)cc1	17.3

SMILES	IC50 [µM]
COc1ccc2c(c1)c(CC(=O)NS(=O)(=O)c1ccc(C(C)C)cc1)cn2C(=O)c1ccc(Cl)cc1	7.9
COc1ccc(S(=O)(=O)NC(=O)Cc2cn(C(=O)c3ccc(Cl)cc3)c3ccc(OC)cc23)cc1	39.9
COc1ccc2c(c1)c(CC(=O)NS(=O)(=O)c1ccc(F)cc1)cn2C(=O)c1ccc(Cl)cc1	39.9
COc1ccc2c(c1)c(CC(=O)NS(=O)(=O)c1ccc(C#N)cc1)cn2C(=O)c1ccc(Cl)cc1	33
COc1ccc2c(c1)c(CC(=O)NS(=O)(=O)c1ccc(Br)cc1)cn2C(=O)c1ccc(Cl)cc1	39.9
COc1ccc2c(c1)c(CC(=O)NS(=O)(=O)c1cc(C(F)(F)F)ccc1C(F)(F)F)cn2C(=O)c1ccc(Cl)cc1	19.3
CCC(=O)Cc1cn(C(=O)O)c2ccc(OC)cc12	100
CCC(=O)Cc1cn(C(=O)OC)c2ccc(OC)cc12	> 100
COc1ccc2c(c1)c(C)c(CC(C)(C)C(=O)O)n2C(=O)c1ccc(Cl)cc1	9.82
COc1ccc2c(c1)c(C)c(CC(C)C(=O)NS(C)(=O)=O)n2C(=O)c1ccc(Cl)cc1 (stereo unspecified)	116
COc1ccc2c(c1)c(C)c(CCC(=O)NS(=O)(=O)c1ccc(C)cc1)n2C(=O)c1ccc(Cl)cc1	12.3
COc1ccc2c(c1)c(C)c(CCC(=O)NS(=O)(=O)c1ccc3ccccc3c1)n2C(=O)c1ccc(Cl)cc1	72.3
COc1ccc2c(c1)c(C)c(CCC(=O)NS(=O)(=O)c1ccccc1C)n2C(=O)c1ccc(Cl)cc1	21.1
COc1ccc2c(c1)c(C)c(CCC(=O)NS(=O)(=O)c1ccc(C(F)(F)F)cc1)n2C(=O)c1ccc(Cl)cc1	33.7
COc1ccc2c(c1)c(C)c(CCC(=O)NS(=O)(=O)c1ccc(OC(F)(F)F)cc1)n2C(=O)c1ccc(Cl)cc1	40.4
COc1ccc2c(c1)c(C)c(CCC(=O)NS(=O)(=O)c1ccc(C(C)=O)cc1)n2C(=O)c1ccc(Cl)cc1	27.4
COc1ccc2c(c1)c(C)c(CCC(=O)NS(=O)(=O)c1ccc(C(C)C)cc1)n2C(=O)c1ccc(Cl)cc1	55.3
COc1ccc2c(c1)c1c(n2C(=O)c2cccc(C(F)(F)F)c2)CCC(C(=O)O)C1 (stereo unspecified)	100
COc1ccc2c(c1)c1c(n2C(=O)c2ccc(Cl)cc2)CCC(C(=O)NS(C)(=O)=O)C1 (stereo unspecified)	> 100
COc1ccc2c(c1)c1c(n2C(=O)c2ccc(Cl)cc2)CC(C(=O)O)CC1 (stereo unspecified)	48.2
COC(=O)Cc1c(C)n(C(=O)c2ccc(Cl)cc2)c2ccc(OC)cc12	> 100
COc1ccc2c(c1)c(C)c(CC(C)C(=O)O)n2C(=O)c1ccc(Cl)cc1 (racemic)	12.3

Target: T2, Aldo-keto reductase family 1 member C3 (Homo sapiens, UniProt P42330)
T2 sequence (P42330 whole entry): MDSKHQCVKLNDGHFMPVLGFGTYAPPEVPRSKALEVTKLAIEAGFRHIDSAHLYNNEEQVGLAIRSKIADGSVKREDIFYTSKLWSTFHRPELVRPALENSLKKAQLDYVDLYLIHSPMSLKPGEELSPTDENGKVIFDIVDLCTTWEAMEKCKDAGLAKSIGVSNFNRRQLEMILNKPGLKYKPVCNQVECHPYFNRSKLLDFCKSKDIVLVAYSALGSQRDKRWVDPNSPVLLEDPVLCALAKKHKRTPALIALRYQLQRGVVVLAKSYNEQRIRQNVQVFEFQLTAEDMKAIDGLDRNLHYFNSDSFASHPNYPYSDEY
Experiment: Inhibition of human recombinant AKR1C3-mediated NADP+-dependent oxidation of S-(+)-1,2,3,4-tetrahydro-1-naphthol

SMILES	IC50 [µM]
COc1ccc2c(c1)c(CC(=O)O)c(C)n2C(=O)c1ccc(F)cc1	0.71
COc1ccc2c(c1)c(CC(=O)NS(C)(=O)=O)c(C)n2C(=O)c1ccc(Cl)cc1	2.24
COc1ccc(C(=O)n2c(C)c(CC(=O)O)c3cc(OC)ccc32)cc1	0.14
COc1ccc2c(c1)c(CC(=O)O)c(C)n2C(=O)c1cccc(C(F)(F)F)c1	2.44
Cc1c(CC(=O)O)c2cc(F)ccc2n1C(=O)c1cccc(C(F)(F)F)c1	2.23
COC(=O)Cc1c(C)n(C(=O)c2ccc(C)cc2)c2ccc(OC)cc12	7.54
COC(=O)Cc1c(C)n(C(=O)c2ccc(C(F)(F)F)cc2)c2ccc(OC)cc12	15.7
COC(=O)Cc1c(C)n(C(=O)c2ccc(OC)cc2)c2ccc(OC)cc12	7.59
Cc1c(CCC(=O)O)c2cc(F)ccc2n1C(=O)c1ccc(Cl)cc1	0.29
COc1ccc2c(c1)cc(C)n2C(=O)c1ccc(Cl)cc1	3.56
COC(=O)Cc1cn(C(=O)c2ccc(Cl)cc2)c2ccc(OC)cc12	11.3
COc1ccc2c(c1)c(CC(=O)O)cn2C(=O)c1ccc(F)cc1	4.96
COc1ccc2c(c1)c(CC(=O)O)cn2C(=O)c1ccc(C(F)(F)F)cc1	1.08
COc1ccc2c(c1)c(CC(=O)O)cn2C(=O)c1cccc(C(F)(F)F)c1	5.21
O=C(O)Cc1cn(C(=O)c2ccc(Cl)cc2)c2ccc(F)cc12	0.5
COc1ccc2c(c1)c(CC(=O)NS(C)(=O)=O)cn2C(=O)c1ccc(Cl)cc1	12
COc1ccc2c(c1)c(CC(=O)NS(=O)(=O)c1ccc(C)cc1)cn2C(=O)c1ccc(Cl)cc1	12.4
COc1ccc2c(c1)c(CC(=O)NS(=O)(=O)c1ccc3ccccc3c1)cn2C(=O)c1ccc(Cl)cc1	1.19
COc1ccc2c(c1)c(CC(=O)NS(=O)(=O)c1ccccc1C)cn2C(=O)c1ccc(Cl)cc1	8.82
COc1ccc2c(c1)c(CC(=O)NS(=O)(=O)c1ccc(C(F)(F)F)cc1)cn2C(=O)c1ccc(Cl)cc1	2.07
COc1ccc2c(c1)c(CC(=O)NS(=O)(=O)c1ccc(OC(F)(F)F)cc1)cn2C(=O)c1ccc(Cl)cc1	2.65
COc1ccc2c(c1)c(CC(=O)NS(=O)(=O)c1ccc(Cl)s1)cn2C(=O)c1ccc(Cl)cc1	3.73
COc1ccc2c(c1)c(CC(=O)NS(=O)(=O)c1ccc(C(C)=O)cc1)cn2C(=O)c1ccc(Cl)cc1	2.09

SMILES	IC50 [µM]
COc1ccc2c(c1)c(CC(=O)NS(=O)(=O)c1ccc(C(C)C)cc1)cn2C(=O)c1ccc(Cl)cc1	6.34
COc1ccc(S(=O)(=O)NC(=O)Cc2cn(C(=O)c3ccc(Cl)cc3)c3ccc(OC)cc23)cc1	5.8
COc1ccc2c(c1)c(CC(=O)NS(=O)(=O)c1ccc(F)cc1)cn2C(=O)c1ccc(Cl)cc1	7.86
COc1ccc2c(c1)c(CC(=O)NS(=O)(=O)c1ccc(Oc3ccccc3)cc1)cn2C(=O)c1ccc(Cl)cc1	2.52
COc1ccc2c(c1)c(CC(=O)NS(=O)(=O)c1ccc(C#N)cc1)cn2C(=O)c1ccc(Cl)cc1	1.11
COc1ccc2c(c1)c(CC(=O)NS(=O)(=O)c1ccc(Br)cc1)cn2C(=O)c1ccc(Cl)cc1	3.97
COc1ccc2c(c1)c(CC(=O)NS(=O)(=O)c1cc(C(F)(F)F)ccc1C(F)(F)F)cn2C(=O)c1ccc(Cl)cc1	1.94
CCC(=O)Cc1cn(C(=O)O)c2ccc(OC)cc12	2.4
CCC(=O)Cc1cn(C(=O)OC)c2ccc(OC)cc12	22.8
COc1ccc2c(c1)c(C)c(CC(C)(C)C(=O)O)n2C(=O)c1ccc(Cl)cc1	0.12
COc1ccc2c(c1)c(C)c(CC(C)C(=O)NS(C)(=O)=O)n2C(=O)c1ccc(Cl)cc1 (stereo unspecified)	5.53
COc1ccc2c(c1)c(C)c(CCC(=O)NS(=O)(=O)c1ccc(C)cc1)n2C(=O)c1ccc(Cl)cc1	3.11
COc1ccc2c(c1)c(C)c(CCC(=O)NS(=O)(=O)c1ccc3ccccc3c1)n2C(=O)c1ccc(Cl)cc1	2.54
COc1ccc2c(c1)c(C)c(CCC(=O)NS(=O)(=O)c1ccccc1C)n2C(=O)c1ccc(Cl)cc1	3.25
COc1ccc2c(c1)c(C)c(CCC(=O)NS(=O)(=O)c1ccc(C(F)(F)F)cc1)n2C(=O)c1ccc(Cl)cc1	1.11
COc1ccc2c(c1)c(C)c(CCC(=O)NS(=O)(=O)c1ccc(OC(F)(F)F)cc1)n2C(=O)c1ccc(Cl)cc1	2.5
COc1ccc2c(c1)c(C)c(CCC(=O)NS(=O)(=O)c1ccc(C(C)=O)cc1)n2C(=O)c1ccc(Cl)cc1	2.65
COc1ccc2c(c1)c(C)c(CCC(=O)NS(=O)(=O)c1ccc(C(C)C)cc1)n2C(=O)c1ccc(Cl)cc1	4.69
COc1ccc2c(c1)c1c(n2C(=O)c2cccc(C(F)(F)F)c2)CCC(C(=O)O)C1 (stereo unspecified)	0.279
COc1ccc2c(c1)c1c(n2C(=O)c2ccc(Cl)cc2)CCC(C(=O)NS(C)(=O)=O)C1 (stereo unspecified)	5.07
COc1ccc2c(c1)c1c(n2C(=O)c2ccc(Cl)cc2)CC(C(=O)O)CC1 (stereo unspecified)	0.34
COC(=O)Cc1c(C)n(C(=O)c2ccc(Cl)cc2)c2ccc(OC)cc12	5.67
COc1ccc2c(c1)c(C)c(CC(C)C(=O)O)n2C(=O)c1ccc(Cl)cc1 (racemic)	0.29

— ChEMBL document CHEMBL2321830 (J Med Chem, 2013)
